{"source": "patent US9101569B2", "about": "“Methods for the treatment of insulin resistance” (UNIVERSITE DE GENEVE, priority 2010, dated 2015)", "key": {"[1]": {"experiment": "Plasma measurements after i.c.v. OT infusion in HFD-induced obese rats", "format": "in vivo, rat", "conditions": "rat, plasma, 1.6 nmol/day/rat; i.c.v. OT 1.6 nmol/d, 14 days; mean ± SEM; read-out: plasma Oxytocin", "procedure": "(§1) After three weeks of HFD feeding, rats were submitted to surgical procedures. They were anesthetized with intramuscular injection of ketamine-xylasine (Ketalar®-Rompun®, Parke-Davis and Bayer, Leverkusen, Switzerland) at 40 and 9 mg/kg, respectively, and implanted with a cannula in the right lateral cerebral ventricle fixed on the skull with dental cement, as previously described (Rohner-Jeanrenaud et al., 1989, Endocrinology 124, 733-9). After one week of recovery, the drinking response to i.c.v. injection of Angiotensin II (5 ng/μl) (Novabiochem, Laüfelfingen, Switzerland) was measured to confirm the correct placement of the cannula. At the end of the fifth week of high fat diet feeding, osmotic minipumps (Alzet®, model 2001, Alza Corporation, Cupertino, Calif.) delivering oxytocin (NeoMPS®, Strasbourg, France) or its vehicle (NaCl 0.9%) were subcutaneously implanted and connected to the i.c.v. cannula via a polyethylene catheter, as previously described (Rohner-Jeanrenaud et al., 1989, above). OT was delivered at a dose of 1.6 nmol/day/rat or 16 nmol/day/rat during 14 days. A group of vehicle-infused rats was pair-fed to the amount of food consumed by OT-infused animals in order to assess the effects of OT independently from changes in food intake. The pair-feeding regimen consisted in giving one-third of the daily food amount in the morning and the remaining two-thirds just before onset of darkness. Rats were sacrificed using isoflurane anesthesia (Halocarbon Laboratories, River Edge, N.J.) and rapid decapitation between 09:00 and 13:00 h. Blood samples were collected into EDTA-coated tubes, centrifuged and plasma stored at −20° C. Tissues were rapidly removed, freeze-clamped, and stored at −80° C.\n(§2) To determine the effect of OT on peripheral metabolism, levels of plasma glucose, insulin, leptin, FFA, glycerol and TG were determined. Plasma glucose was measured by the glucose oxidase method (Glu, Roche Diagnostics GmbH, Rotkreuz, Switzerland). Plasma non-esterified fatty acid (NEFA) and triglyceride (TG) levels were determined using NEFA C and TG enzymatic PAP150 commercial kits from Wako Chemicals GmbH (Neuss, Germany) and Biomérieux (Marcy l'Etoile, France), respectively. Plasma OT levels were determined using an ELISA, as previously described (Pequeux et al., 2001, Scand. J. Clin. Lab. Invest., 61, 407-415). Plasma glycerol levels were measured using the free Glycerol Reagent (Sigma)."}, "HFD-induced obese rats": {"tested_on": "HFD-induced obese rats", "experiment": "Plasma measurements after i.c.v. OT infusion in HFD-induced obese rats", "format": "in vivo, rat", "procedure": "as §1, §2"}, "[2]": {"conditions": "i.c.v. OT 1.6 nmol/d, 14 days, mean ± SEM"}, "[3]": {"conditions": "i.c.v. OT 1.6 nmol/d, 14 days, mean ± SEM, listed as Oxytocin"}}}
{"smiles": "CC[C@H](C)[C@@H]1NC(=O)[C@H](Cc2ccc(O)cc2)NC(=O)[C@@H](N)CSSC[C@@H](C(=O)N2CCC[C@H]2C(=O)N[C@@H](CC(C)C)C(=O)NCC(N)=O)NC(=O)[C@H](CC(N)=O)NC(=O)[C@H](CCC(N)=O)NC1=O", "note": "[OT, Cys-Tyr-Ile-Gln-Asn-Cys-Pro-Leu-Gly (SEQ ID NO: 1)]", "values": [{"measurement": "level at 336 h", "setting": "[1]", "value": "0.0218 ± 0.0058", "unit": "ng/mL"}, {"measurement": "plasma glycerol levels", "setting": "HFD-induced obese rats; central (i.c.v.) OT 1.6 nmol/day", "value": "increased"}, {"measurement": "plasma 2-AG", "setting": "HFD-induced obese rats; [2]", "value": "53 ± 4.9", "unit": "pmol/mL"}, {"measurement": "plasma AEA", "setting": "HFD-induced obese rats; [2]", "value": "19 ± 2.3", "unit": "pmol/mL"}, {"measurement": "plasma FFA", "setting": "HFD-induced obese rats; [2]", "value": "unchanged"}, {"measurement": "plasma Glucose", "setting": "HFD-induced obese rats; [2]", "value": "unchanged"}, {"measurement": "plasma Insulin", "setting": "HFD-induced obese rats; [2]", "value": "unchanged"}, {"measurement": "plasma Leptin", "setting": "HFD-induced obese rats; [2]", "value": "unchanged"}, {"measurement": "plasma OEA", "setting": "HFD-induced obese rats; [2]", "value": "178 ± 15", "unit": "pmol/mL"}, {"measurement": "plasma Oxytocin", "setting": "HFD-induced obese rats; [2]", "value": "increased"}, {"measurement": "plasma PEA", "setting": "HFD-induced obese rats; [2]", "value": "1.63 ± 0.15", "unit": "nmol/mL"}, {"measurement": "plasma TG", "setting": "HFD-induced obese rats; [2]", "value": "decreased"}, {"measurement": "plasma FFA", "setting": "HFD-induced obese rats; [3]", "value": "0.70 ± 0.06", "unit": "mmol/L"}, {"measurement": "plasma Glucose", "setting": "HFD-induced obese rats; [3]", "value": "159.5 ± 4.1", "unit": "mg/dL"}, {"measurement": "plasma Insulin", "setting": "HFD-induced obese rats; [3]", "value": "1.7 ± 0.3", "unit": "ng/mL"}, {"measurement": "plasma Leptin", "setting": "HFD-induced obese rats; [3]", "value": "11.3 ± 2.2", "unit": "ng/mL"}, {"measurement": "plasma TG", "setting": "HFD-induced obese rats; [3]", "value": "0.80 ± 0.05", "unit": "mmol/L"}]}
